# Reference: patent US11884667B1, “Substituted pyrrolo[2,3-c][2,7]naphthyridines as CK2 inhibitors” (KING FAISAL UNIVERSITY, priority 2023, dated 2024)
# Key:
# [1] = system: PC3 (prostate); assay: In vitro cytotoxic activity (MTT) assay, PC3; format: cell-based; conditions: Homo sapiens, 96 hours exposure, read-out: IC50, 50% inhibition of cell proliferation
# Method: (§1) Compounds 1-15 were screened for their in vitro cytotoxic activity utilizing a 3-(4,5-dimethyl-thiazol-2-yl)-2,5-diphenyltetrazolium bromide (MTT) assay against selected cancer human cell lines consisting of PC3 (prostate), HCT116 (colon), A375 (melanoma), H1299 (lung), MIAPaCa-2 (pancreas), HL60 (leukemia), MCF7 (breast), MDA-MB-231 (breast) (T. Mosmann, J. Immunol. Meth., 1983, 65, 55-63). The cells were cultured at 37° C. in RMPI1640 medium supplemented with 10% fetal bovine serum, 50 IU/mL penicillin, and 50 μg/mL streptomycin in a 5% CO2 incubator. All cells were sub-cultured 3 times/week by trypsinization. Viable cells were seeded and allowed to adhere for 12 h before a test drug was added in 96-well plates at an initial density of 1.0×10^5 cells/mL. Tumour cell lines were separately exposed to various concentrations of the tested compounds followed by incubation at a temperature of 37° C. during 96 h inside a medium of fresh RMPI 1640. Cells were subsequently incubated at 37° C. using MTT at 0.5 mg/mL during 4 h. After removal of supernatant, formazan crystals were dissolved in isopropanol and the optical density was measured at 570 nm. CX-4945 was used as a positive control.
# [2] = system: HCT116 (colon); assay: In vitro cytotoxic activity (MTT) assay, HCT116; format: cell-based; conditions: Homo sapiens, HCT-116, 96 hours exposure, read-out: IC50, 50% inhibition of cell proliferation
# Method: as §1
# [3] = system: A375 (melanoma); assay: In vitro cytotoxic activity (MTT) assay, A375; format: cell-based; conditions: Homo sapiens, A-375, 96 hours exposure, read-out: IC50, 50% inhibition of cell proliferation
# Method: as §1
# [4] = system: H1299 (lung); assay: In vitro cytotoxic activity (MTT) assay, H1299; format: cell-based; conditions: Homo sapiens, NCI-H1299, 96 hours exposure, read-out: IC50, 50% inhibition of cell proliferation
# Method: as §1
# [5] = system: MIAPaCa-2 (pancreas); assay: In vitro cytotoxic activity (MTT) assay, MIAPaCa-2; format: cell-based; conditions: Homo sapiens, MIA PaCa-2, 96 hours exposure, read-out: IC50, 50% inhibition of cell proliferation
# Method: as §1
# [6] = system: HL60 (leukemia); assay: In vitro cytotoxic activity (MTT) assay, HL60; format: cell-based; conditions: Homo sapiens, HL-60, 96 hours exposure, read-out: IC50, 50% inhibition of cell proliferation
# Method: as §1
# [7] = system: MCF7 (breast); assay: In vitro cytotoxic activity (MTT) assay, MCF7; format: cell-based; conditions: Homo sapiens, 96 hours exposure, read-out: IC50, 50% inhibition of cell proliferation
# Method: as §1
# [8] = system: MDA-MB-231 (breast); assay: In vitro cytotoxic activity (MTT) assay, MDA-MB-231; format: cell-based; conditions: Homo sapiens, 96 hours exposure, read-out: IC50, 50% inhibition of cell proliferation
# Method: as §1
# [9] = biological target: T1, recombinant human CK2 (RRββ-holoenzyme) (Homo sapiens, UniProt P68400); assay: CK2 kinase assay ([γ-33P]ATP, filter plate); format: biochemical; conditions: final ATP 15 μM, 10 min at 30° C.; read-out: protein kinase CK2 IC50
# T1 construct: purchased Millipore
# T1 sequence (P68400 whole entry): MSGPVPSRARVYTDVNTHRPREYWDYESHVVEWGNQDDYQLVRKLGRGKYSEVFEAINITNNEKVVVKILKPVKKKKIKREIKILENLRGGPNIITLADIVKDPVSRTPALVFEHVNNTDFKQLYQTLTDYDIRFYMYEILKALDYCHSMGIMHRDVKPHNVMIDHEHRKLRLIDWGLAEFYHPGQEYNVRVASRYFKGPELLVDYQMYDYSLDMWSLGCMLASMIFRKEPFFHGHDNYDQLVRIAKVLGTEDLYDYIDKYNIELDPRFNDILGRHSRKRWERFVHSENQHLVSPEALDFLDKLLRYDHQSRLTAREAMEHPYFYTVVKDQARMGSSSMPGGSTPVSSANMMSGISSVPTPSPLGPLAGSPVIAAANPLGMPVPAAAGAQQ
# T1 sequence (P67870 whole entry partner): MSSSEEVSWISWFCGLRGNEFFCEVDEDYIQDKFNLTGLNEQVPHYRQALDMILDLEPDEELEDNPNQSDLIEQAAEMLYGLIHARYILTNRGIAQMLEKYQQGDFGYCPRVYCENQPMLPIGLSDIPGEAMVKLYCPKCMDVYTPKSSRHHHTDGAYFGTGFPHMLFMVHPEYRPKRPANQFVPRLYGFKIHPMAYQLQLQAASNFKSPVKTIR
# Method: CK2 Kinase Assay was conducted using the protocol as described in Pierre F. et al; J. Med. Chem. 2011, 54, 635-654. The tested compounds in aqueous solution were added at a volume of 10 μL to a reaction mixture comprising 10 μL of assay dilution buffer (ADB; 20 mM MOPS, pH 7.2, 25 mM β-glycerol phosphate, 5 mM EGTA, 1 mM sodium orthovanadate, and 1 mM dithiothreitol), 10 μL of substrate peptide (RRRDDDSDDD, dissolved in ADB at a concentration of 1 mM), 10 μL of recombinant human CK2 (RRββ-holoenzyme, 25 ng dissolved in ADB; Millipore). Reactions were initiated by the addition of 10 μL of ATP solution (90% 75 mMMgCl2, 75 μM ATP (final ATP concentration:15 μM) dissolved in ADB; 10% [γ-33P] ATP (stock 1mCi/100 μL; 3000 Ci/mmol (Perkin-Elmer) and maintained for 10 min at 30° C. The reactions were quenched with 100 μL of 0.75% phosphoric acid and then transferred to and filtered through a phosphor cellulose filter plate (Millipore). After washing each well five times with 0.75% phosphoric acid, the plate was dried under vacuum for 5 min and, following the addition of 15 μL of scintillation fluid to each well, the residual radioactivity was measured using a Wallac […]. The IC50 values were derived from eight concentrations of test inhibitors.
structure (smiles),measurement,setting,value
"O=C(O)c1cc2c(nc(Nc3cccc(Cl)c3)c3cnccc32)[nH]1 [Compound 1, 5-((3-chlorophenyl)amino)-3H-pyrrolo[2,3-c][2,7]naphthyridine-2-carboxylic acid]",IC50,[1],2600 nM
same,IC50,[2],900 nM
same,IC50,[3],2700 nM
same,IC50,[4],1100 nM
same,IC50,[5],800 nM
same,IC50,[6],2400 nM
same,IC50,[7],3300 nM
same,IC50,[8],4100 nM
same,IC50,[9],16 nM
